Experiments:
[1] = PAMPA gastrointestinal tract permeability; assay type: in vitro ADME; conditions: for Papp at 8 h, 0.5 mM: PAMPA-GI, read-out: GI Pe
Description: A 10 mM solution of each compound in DMSO was prepared and subsequently homogenized in a 5 mL flask with 4.75 mL PBS (pH 6.6) (10 mM). […] 180 μL of a PBS (pH 7.4)/DMSO (95:5) solution were then added to the wells of a 96-well receiver plate, and 5 μL of a L-α-phosphatidylcholine solution (20 mg/mL in dodecane) to the wells of a 96-well donor plate. After 5 min, 180 μL of the solutions containing each compound were added to the wells of the donor plate, in triplicate, and the donor plate was carefully placed over the receiver plate in a “sandwich-like” system, which was left stirring (50 rpm) for 8 h at rt in a sealed vessel containing 10 mL PBS (pH 7.4). Afterward, the donor plate was removed, and the content of the receiver plate was transferred to a UV reading plate, which was read using a microplate reader (SpectraMax 5 – Molecular Devices). A reference sample for the internal correction of the microplate reader was prepared using 180 μL of the PBS (pH 7.4)/DMSO (95:5) solution (adapted from refs and ). The optical density values obtained from the content of the receiver plate were compared with the ones obtained from readings performed with the initial solutions containing each compound, before their addition to the donor plate. […] The optical density values from the receptor plate were compared to those from experimental controls to determine the F a value for each compound, using Microsoft Excel.

[2] = Metabolic stability in mouse liver microsomes; assay type: in vitro ADME; conditions: pH 7.4, MLM, with NADPH cofactor; for microsomal CLint at 5 μM: read-out: Clint, intrinsic clearance; for half-life at 5 μM: read-out: t1/2, microsomal half-life
Description: To a microcentrifuge tube was added 1 mg/mL Mouse Liver Microsome (MLM), a NADPH generating system consisting of 1 mM NADP+, 1.5 mM MgCl2, 3.5 mM glucose-6-phosphate and 0.5 U/mL glucose-6-phosphate dehydrogenase, and phosphate buffer (pH 7.4) in a sufficient amount for a total volume of […]. After a 15 min preincubation at 37 °C in a water bath, the enzymatic reactions were started by adding 2 μL of a […] stock solution of each compound to be assessed, reaching a final concentration of 5 μM in the tested compound. , The samples were further incubated at 37 °C under stirring (30 rpm) for predetermined periods (0, 15, 30, 45, and 60 min), and 500 μL chilled MeOH and 500 μL chilled acetonitrile were added before the samples were homogenized and left standing in an ice bath to accelerate protein precipitation. The resulting mixture was centrifugated at 13000 rpm for 15 min at 4 °C, the organic layer was extracted and 2 μL internal standard (clonazepam 5 μM) was added. Finally, the samples were filtered through a PVDF filter (Millex 0.22 μm x 13 mm) and analyzed by HPLC-PDA. ,

L. infantum GSK-3B = experiment: GSK-3B enzyme inhibition (LANCE TR-FRET); assay type: biochemical; conditions: concentrations up to 30 μM, 10 nM enzyme
Description: The following controls were included: protein in 1% DMSO (100% activity), 10 μM AZD-5438 (0% activity), and buffer without enzyme (blank).
To detect the progress of the enzymatic reaction, a commercially available TR-FRET-based assay (LANCE TR-FRET, PerkinElmer) was used. In the enzymatic step, purified protein kinase and the peptide substrate were incubated with compounds 1 – 6 for 30 min at 25 °C before the addition of ATP to start the reaction, which was run at 30 °C (2 h for GSK-3A or 1 h 15 min for GSK-3B). […]. […]
The fluorescence signal was measured using a CLARIOstar microplate reader (BMG LABTECH) set with an excitation wavelength of 320 nm and an emission wavelength of 665 nm. MARS software (BMG LABTECH) was used to analyze the data obtained after reading each plate. The background fluorescence signal (blank) was subtracted from the fluorescence signal obtained for each reaction, in order to reflect the specific signal of enzymatic activity. The data was then analyzed with the GraphPad Prism v10 software, using the equation “log(inhibitor) vs response - variable slope (four parameters) - Y = Bottom + (Top-Bottom)/(1 + 10̂((LogIC50-X)* HillSlope))” to obtain dose–response curves and determine IC50 values. […]

L. braziliensis SOD = experiment: SOD interaction by differential scanning fluorimetry; assay type: binding, Leishmania braziliensis
Description: The assays were performed using an Applied Biosystems 7500 Fast RT-PCR system (Applied Biosystems, Foster City, CA, USA), in triplicate, with 96-well PCR plates (BioRad, Hercules, CA, USA) sealed with transparent capping strips (BioRad, Hercules, CA, USA). The plates were centrifugated for 2 min at 2000 rpm at 25 °C. The temperature was then ramped up from 25 to 85 °C, increasing 1 °C per minute, while fluorescence signals were monitored using SYPRO Orange dye, with an excitation wavelength of 492 nm and an emission wavelength of 610 nm.
The DSF conditions used in this study have been previously described. , Briefly, each well contained 10 μM L. braziliensis Hsp90 or 5 μM L. braziliensis SOD, 1 μL of 5X SYPRO Orange, buffer A (50 mM PBS, 100 mM NaCl, pH 7.0 for L. braziliensis SOD or 50 mM Tris-HCl, 100 mM KCl, pH 8.0 for L. braziliensis Hsp90), and either 1 μL DMSO (5% v/v, negative control) or 1 – 6 (diluted in DMSO). […] Raw fluorescence data was collected using the Applied Biosystems 7500 Fast Software v2.0 and then exported to NAMI for Tm calculation via the first-derivative method. Differences in Tm values (ΔTm) were considered statistically significant when p < 0.05, as determined by the Kruskal–Wallis test followed by Dunn’s post-test for multiple comparisons, performed using GraphPad Prism 10.0 (GraphPad Software, San Diego, CA, USA, www.graphpad.com).

| SMILES | Fa, fraction absorbed (GI) [1] [%] | Papp at 8 h, 0.5 mM [1] [×10⁻⁶ cm/s] | microsomal CLint at 5 μM [2] [µL/min/mg] | half-life at 5 μM [2] [h] | inhibition of L. infantum GSK-3B (L. infantum GSK-3B) | interaction with L. braziliensis SOD (DSF titration curves) (L. braziliensis SOD; 100 μM to 12.5 μM) | effect on Tm of L. braziliensis SOD (DSF) (L. braziliensis SOD; 100 μM) |
| --- | --- | --- | --- | --- | --- | --- | --- |
| O=C(c1ccc(O)c(Cl)c1)N1CCN(c2cnccn2)CC1 [Compound 1, (3-Chloro-4-hydroxyphenyl)(4-(pyrazin-2-yl)piperazin-1-yl)methanone] | 99.26 | 12.9 | 1.23 | 2.36 | did not exert any inhibition | neither of these compounds interacts |  |
| O=C(c1ccc(O)cc1)N1CCN(c2cnccn2)CC1 [Compound 2, (4-Hydroxyphenyl)(4-(pyrazin-2-yl)piperazin-1-yl)methanone] | 62.71 | 2.59 | 0.55 | 5.25 | no inhibitory effect |  | failed to exert statistically significant effects |

Reference: paper PMC12384620, “Hit-to-Lead Studies of Pyrazinylpiperazines against Visceral Leishmaniasis: Pharmacokinetic Profile and In Vivo Efficacy of Potent Compounds against Leishmania infantum” (ACS Pharmacology & Translational Science, 2025)
